In general, AC50 refers to the midpoint of the concentration-response curve, whichever way the signal moves.

This is an account of results in PubChem BioAssay AID686942 (Broad Institute, 2013).

The subject of this experiment is V. cholerae SLS353 luxOD47E qrr4-GFP fluorescence. Kind of experiment: LuxO quorum inhibitors, qrr4 GFP fluorescence in V. cholerae SLS353 luxOD47E, dose response confirmation (AID 686942).

For the compound `Cn1nc(NC(=O)c2ccco2)c2cc3ccccc3nc21`, the concentration at half-maximal activity (AC50) is 2000 nM.

With `COc1ccc2cc3c(NC(=O)c4ccco4)nn(C)c3nc2c1`, the AC50 was 2000 nM.

Regarding `O=C(Nc1nnc(-c2ccc3c(c2)OCCO3)o1)C1CCCCC1`, the concentration at half-maximal activity (AC50) is 2000 nM.
